According to patent publication US8304453B2, “Composition comprising at least one alkanolamide to inhibit migration of langerhans cells and uses therof” (Laboratoires Expanscience, priority 2001, dated 2012):

Tests used:
[1] = test system: Langerhans cells freshly isolated from human skin; test: Migration of Langerhans cells freshly isolated from human skin, activated by DNSB (two-compartment Matrigel chamber); format: cell-based
Method: Epidermal cell suspensions were obtained by enzymatic treatment (0.05% trypsine for 18 h at +4° C.) of fragments of normal human skin taken from plastic surgery. The suspensions obtained contain an average of 2 to 4% of LC. Obtaining suspensions containing an average of 70% of LC is based on the principle of centrifuging on density gradient (Lymphoprep™) and elimination of keratinocytes.
The basic medium chosen for the entire study was PRMI 1640 (Gibco BRL, France). The AK100 molecule supplied by Pharmascience, with a concentration of 10^−2 M in solution in DMSO (Dimethyl Sulfoxide) was diluted in RPMI-1640 and tested at 1 μM.
The sensitising agent was DNSB (Sigma Aldrich), a soluble form of DNCB (dinitro-chloro-benzene) solubilised in RPMI-BSA and used at a concentration of 50 μM.
A culture chamber system with two compartments (Falcon, Becton Dickinson, France) was used. The upper compartment is separated from the lower compartment by a membrane with 8 μm porosity, on which 50 μg/cm^2 Matrigel was deposited. […] After 18 h incubation at 37° C., the number of living cells that passed through the Matrigel and that are located in the lower compartment is counted under a microscope (the LCs are easily identifiable by their dendritic form). […]

[2] = test system: dendritic cells generated in vitro from CD34+ precursors derived from blood from the umbilical cord; test: Migration of dendritic cells generated in vitro from CD34+ precursors of umbilical cord blood, activated by hapten BB; format: cell-based, human; conditions: for Percentage of dendritic cells generated in vitro that migrated: BB + AK100 1 μM; for inhibition at 1 µM: Homo sapiens, Dendritic cell
Method: Mononucleated cells were obtained from blood from the umbilical cord of healthy donors by centrifuging on Ficoll. The CD34+ cells were then purified by immunoselection using a specific antibody and magnetic balls (Miltenyi Biotech, Germany). The CD34+ cells were cultivated in the presence of GM-CSF (100 ng/ml), TNF-α (2.5 ng/ml) in RPMI to which 10% calf foetus serum was added for 5 days. TGF-β1, a factor that encourages differentiation of cells to the Langerhans cells […], was added on the 5th day of culture.
Cells were treated by hapten BB on the 7th day (Brandowski base, 1.17 μg/ml) for 24 h, and were then subjected to the migration test.
The results represent the percentage of cells that migrated in the presence of the different tested products. The percentage is calculated by taking the ratio of the number of cells recovered in the lower compartment of the migration chamber, to the number of cells subjected to migration. AK100 inhibits the migration of dendritic cells by 51 and 25% in experiments 1 and 2 respectively.

[3] = test system: dendritic cells; test: Migration of dendritic cells to draining ganglions in mouse sensitised by FITC hapten (AK100 ± LU105, Example 4); format: in vivo
Text: FITC (Fluoresceine isothiocyanate, Sigma, St Louis, Mo.) was extemporaneously diluted in an acetone mix (dibutylphthalate (1:1)).
Alkanolamide AK100 and LU105 (LU 105 is an MMP inhibitor, corresponding to a peptide extract of white lupin marketed by the Expanscience Company under the brand name Actimp (193®) were supplied by “Laboratoires Expanscience” and formulated alone or association with each other in an inert vehicle compatible with a topical application (alkanolamide AK100 (0.1%)± LU105 (2%)). The different formulations were applied on the ears of mice twice per day for 4 consecutive days. 1.5% of FITC was applied on both ears (one treated and the other not treated (Control)) three hours after the last application.
The effect of the two molecules was evaluated in vivo in the mouse. 1.5% FITC (2×5 μl) was applied on the skin of both ears. […] The cells were then centrifuged for 10 minutes at 600×g (m×s^−2) on a metrizamide gradient (14.5% in RPMI 1640; 7.5% SVF) The interface cells were retrieved, rinsed and then marked with an anti-CDS86 PE-conjugated, biot-MHC CLII mAbs AC plus streptavidine-Cya (PharMingen) and analysed by flux cytometry. Only the FITC^+, PE^+ and Cya^+ cells are counted since they represent the population of cells that migrated from the skin to GLs following the application of hapten.

[4] = test system: dendritic cells; test: Migration of dendritic cells to draining ganglions in mouse sensitised by FITC hapten (AK100 ± OX100, Example 5); format: in vivo; conditions: for Migration inhibition in %: FITC
Method: FITC (Fluoresceine isothiocyanate, Sigma, St. Louis, Mo.) was diluted extemporaneously in a mixture of acetone and dibutylphthalate (1:1).
Alkanolamide AK100 and OX100 (described above) were supplied by “Laboratoires Expanscience” and formulated alone or in association in an inert vehicle compatible with a topical application [AK100 (0.05%)±OX100 (0.05%)]. The different formulations were applied on the ears of mice twice per day for 4 consecutive days. Three hours after the last application, 1.5% of FITC was applied on both ears (one treated and the other not treated (Control)).
The effect of the two molecules was evaluated in vivo in the mouse. 1.5% FITC (2×5 μl) was applied on the skin of both ears. 24 h later, the mice were sacrificed and a cellular suspension was prepared from auricular and cervical ganglions (draining ganglions, hereinafter denoted GL) or from the poplital ganglions (non-draining ganglions, negative control). The tissues were cut and cells separated by filtration (100 μm filter, Falcon; Becton Dickinson) and then washed. The cells were then centrifuged for 10 minutes at 600×g (m×s^−2) on a metrizamide gradient (14.5% in RPMI 1640; 7.5% SVF). The interface cells were retrieved, rinsed and then marked with an anti-CDS86 PE-conjugated, biot-MHC CLII mAbs AC plus streptavidine-Cya (PharMingen) and analysed by flux cytometry. Only the FITC^+, PE^+ and Cya^+ cells are counted since they represent the population of cells that migrated from the skin to GLs following the application of hapten.

[5] = mice sensitised by FITC hapten, topical

SMILES | Inhibition of migration of LCs induced by DNSB ([1]; 1 μM) | LC migration index ([1]; DNSB 50 μM + AK100 1 μM, 18 h, control cells set to 1, DNSB alone 2.55) | Inhibition of migration of dendritic cells activated by hapten BB ([2]; 1 μM) | Percentage of dendritic cells generated in vitro that migrated ([2]; Experiment 1, BB alone 17) | Percentage of dendritic cells generated in vitro that migrated ([2]; Experiment 2, BB alone 24) | inhibition at 1 µM ([2]; Experiment 1, 1 μM) | inhibition at 1 µM ([2]; Experiment 2, 1 μM) | Migration inhibition in % ([3]; 0.1% topical on ears twice per day for 4 days, FITC) | Inhibition of migration of DCs to LGs [3, 5] | Migration inhibition in % ([4]; AK100 0.05% topical on ears twice per day for 4 days) | Inhibition of migration of DCs to LGs [4, 5] | Migration inhibition in % ([4]; OX100 0.05% topical on ears twice per day for 4 days)
CCCCCCCCCCCC(=O)NC(C)(C)CO [AK100] | significantly inhibits | 1.11 | significantly inhibits | 8.4% | 18% | 51% | 25% | 30% | significantly inhibits | 15% | significantly inhibits | 
CCCCCCCCCCCC1=NC(C)(C)CO1 [OX100, 2-undecyl-4,4-dimethyl-1,3-oxazoline] |  |  |  |  |  |  |  |  |  |  |  | 15%
